Experimental data from EP3409266A1, “ACTIVE INGREDIENT COMBINATIONS OF GLYCERYL GLUCOSIDES AND ONE OR MORE MILD SURFACTANTS” (Beiersdorf AG, priority 2010, dated 2012).

Columns and labels:
Kalbserythrozyten [1] = assay type: cell-based, Kalb
Text: Die Milde eines Tensides oder Tensidsystems lässt sich durch die Bestimmung der Quotienten aus Hämolysewert und Denaturierungsindex charakterisieren. Der Quotient L/D repräsentiert das Verhältnis von Hämolysewert (L) zu Denaturierungsindex (D) und wird durch den Standard RBC-Test bestimmt.
(§1) Der Standard RBC-Test dient zur Abschätzung von in-vivo Augenschleimhautreizpotentialen von Tensiden und tensidhaltigen Produkten. Das Verfahren beruht auf der Tatsache, dass Tenside stark mit Zellmembranen und Proteinen interagieren. Beide Effekte werden photometrisch durch Analyse des natürlichen Blutfarbstoffs Oxyhämoglobin ([…]) bestimmt. Im Gegensatz zu anderen zellbasierten Systemen ist der RBC-Test in der Lage zwischen Schädigungen der Zellmembran (Hämolyse) und Proteindenaturierung (Denaturierungsindex) zu differenzieren.
Der Quotient (L/D-Wert) stellt das Verhältnis der Kenngrößen von Hämolyse (H50) und Denaturierung (DI) dar und wird zur Charakterisierung und Klassifizierung der untersuchten Prüfmuster verwendet.
Tenside oder Tensidmischungen werden erfindungsgemäß als mild angesehen, wenn der L/D-Wert mindestens 1 beträgt. Zum Vergleich dazu hat das häufig in Reinigungsprodukten eingesetzte Natriumlaurylethersulfat einen L/D-Wert von ca. 0,3 und wird als reizend klassifiziert. Sofern in einer Tensidmischung Natriumlaurylethersulfat eingesetzt wird, hat die resultierende Tensidmischung erfindungsgemäß einen L/D-Wert von mindestens 1.

HbO2 = molecular target: T1, HbO2 (Bos taurus, UniProt P01966+P02070); experiment: RBC test: HbO2 denaturation (denaturation index DI); assay type: cell-based; conditions: raw material 0,1 Gew.-% active content in PBS, 10 min, RT; 100% standard Natriumlaurylsulfat; lower = better tolerated
T1 construct: wird im Vergleich zum nativen HbO2 gemessen; endogenous in cells; host or cells: isolated calf erythrocytes (Kalbserythrozyten)
T1 sequence (P01966 2-142 limits assumed): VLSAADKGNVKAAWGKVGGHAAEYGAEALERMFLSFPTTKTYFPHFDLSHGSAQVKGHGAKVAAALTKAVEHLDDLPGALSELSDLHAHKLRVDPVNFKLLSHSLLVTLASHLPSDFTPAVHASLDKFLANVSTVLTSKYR
T1 sequence (P02070 whole entry): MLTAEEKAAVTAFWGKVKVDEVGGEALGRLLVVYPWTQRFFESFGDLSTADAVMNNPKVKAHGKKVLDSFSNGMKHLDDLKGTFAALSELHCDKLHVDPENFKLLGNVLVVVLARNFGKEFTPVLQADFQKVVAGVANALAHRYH
Text: as §1
Ein definiertes Aliquot isolierter Kalbserythrozyten wird mit einer fixen Konzentration des Prüfmusters (Konzentration für Rohstoffe 0,1 Gew.-% Aktivgehalt der waschaktiven Substanz in PBS; Konzentration für Fertigprodukte 1% w/v in PBS) für 10 Minuten unter Schütteln bei RT inkubiert und dann zentrifugiert. Die Änderung der spektralen Absorption bei 575 nm und 540 nm wird im Vergleich zum nativen HbO2 gemessen. Aus dem Verhältnis der Absorptionswerte zueinander wird der Denaturierungsindex DI [%] berechnet. Als 100%-Standard dient Natriumlaurylsulfat (0,1% Aktivgehalt).
Je geringer der Wert, desto verträglicher ist das untersuchte Muster.

Kalbserythrozyten [2] = experiment: RBC test: haemolysis (release of haemoglobin, H50); assay type: cell-based, Kalb; conditions: 10 min
Text: as §1
Ein definiertes Aliquot isolierter Kalbserythrozyten wird mit einer Reihe steigender Konzentrationen des zu untersuchenden Musters (Stammlösung für Rohstoffe 0,1 Gew.-% Aktivgehalt der waschaktiven Substanz in PBS; Stammlösung für Fertigprodukte 1:100 w/v in PBS) für 10 Minuten unter Schütteln bei RT inkubiert. PBS ist ein üblicher Standard-PhosphatPuffer (pH 7,4) mit folgender Zusammensetzung:
Die Inkubationsperiode wird durch schnelle Hochgeschwindigkeitszentrifugation beendet. Nach Zentrifugation werden die gewonnenen Überstände photometrisch auf ihren Gehalt an freigesetztem Hämoglobin (HbO2) bei 530 nm analysiert. Daraus wird der relative Hämolysegrad berechnet und die Konzentrations-Response-Kurve mit dem H50-Wert [µl/ml] als Kenngröße bestimmt. Dieser gibt die Konzentration des Prüfmusters an, bei der 50% des Hämoglobins freigesetzt werden. Je höher der Wert, desto verträglicher ist das untersuchte Muster.

Compound | L/D (Kalbserythrozyten [1]) | DI (HbO2) | H50 (Kalbserythrozyten [2]; bovine, pH 7.4) | Klassifizierung nach L/D-Wert (Kalbserythrozyten [1]) | H50 (Kalbserythrozyten [2]; raw material, stock 0,1 Gew.-% active content in PBS, RT, higher = better tolerated) [µl/ml]
Laurylglucosid | 20,4 | 3,2% | 84,1 µl/ml | – | –
Dinatrium PEG-5 Laurylcitratsulfosuccinat | 117 | 5,5% | 645 µl/ml | – | –
Cocamidopropylbetain | 21,65 | 2,6% | 56,1 µl/ml | – | –
Dinatriumcocoamphodiacetat | 24 | 1,5% | 36,4 µl/ml | – | –
Natriumlaurylethersulfat [reference compound] | ca. 0,3 | – | – | reizend | –
Decylglucosid | 33,4 | 3,9% | 127,7 µl/ml | – | –
Dinatriumlaurylethersulfosuccinat | 4,15 | 40,4% | 167,7 µl/ml | – | –
CCCCCCCCCCCC(=O)NC(CCC(=O)O)C(=O)O (centres unmarked) [Natriumlauroylglutamat] | 29,9 | 10,5% | 312,3 µl/ml | – | –
CCCCCCCCCCCC(=O)N(C)CC(=O)O [Natriumlauroylsarcosinat] | 7,84 | 58,4% | – | – | 458
PEG-7 Glycerylcocoat | 23,5 | 4,9% | 115,2 µl/ml | – | –
Natriumcocoamphoacetat | 26 | 1% | 26 µl/ml | – | –
Dinatriumcocoylglutamat | 1,75 | 77,9% | 136,6 µl/ml | – | –
